Source: paper PMC9127750, “Structure-based design of CDC42 effector interaction inhibitors for the treatment of cancer” (Cell reports, 2022)
“And” between values parts separate entries of the source, which are not always exact repeats. Equal entries are not always repeated.

System: WM3248 melanoma cells, 486 antibodies
Assay: Reverse phase protein arrays (RPPA);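 for CA9.R.C RPPA level: ratio of treated to vehicle (0 µM) normalized linear protein signal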;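 for CD171.M.V RPPA level: ratio of treated to vehicle (0 µM) normalized linear protein signal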;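 for CREB pS133.R.C RPPA level: ratio of treated to vehicle (0 µM) normalized linear protein signal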;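 for Cyclin.B1.R.V RPPA level: ratio of treated to vehicle (0 µM) normalized linear protein signal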
Format: cell-based, Human
Conditions: 5 uM
Excerpt: Pellets were snap frozen in liquid nitrogen and shipped to MD Anderson Cancer Center core RPPA facility for RPPA analysis (Table S5). Three biological replicates for each sample were generated.
Nomenclatures on the RPPA heatmaps: name_of_antibody.species_of_antibody.status_of_antibody. V - antibody validated; C - validation of antibody in progress; Q - antibody nonspecific; E – under evaluation; antibodies raised in M - mouse, G - goat, R - rabbit, or T - rat.

## CN(C)c1cccc(Nc2cc(-c3ccccc3)nc(C3CCNCC3)n2)c1 [ARN22089, N1,N1-dimethyl-N3-(6-phenyl-2-(piperidin-4-yl)pyrimidin-4-yl)benzene-1,3-diamine]
Individual replicates
  RPPA signal, antibody Vinculin.M.V: 0.948 and 1.034 and 1.010
  RPPA signal, antibody WIPI1.R.C: 1.016 and 0.609
  RPPA signal, antibody WIPI2.R.C: 0.917 and 1.190 and 1.151
  RPPA signal, antibody WTAP.R.V: 1.007 and 0.770 and 0.970
  RPPA signal, antibody Wee1.R.C: 0.852 and 1.576 and 1.161
  RPPA signal, antibody Wee1_pS642.R.C: 0.857 and 1.327 and 1.158
  RPPA signal, antibody XBP.1.G.C: 1.019 and 0.701
  RPPA signal, antibody XIAP.R.C: 1.016 and 1.128
  RPPA signal, antibody XPA.M.V: 1.083 and 0.917 and 1.035
  RPPA signal, antibody XPF.R.C: 0.939 and 1.048
  RPPA signal, antibody XRCC1.R.C: 1.023 and 0.932 and 0.869
  RPPA signal, antibody YAP.R.C: 1.026 and 0.858 and 1.131
  RPPA signal, antibody YAP_pS127.R.V: 0.924 and 0.808 and 1.102
  RPPA signal, antibody YB1_pS102.R.V: 0.854 and 0.995
  RPPA signal, antibody YES1.R.V: 1.034 and 0.913 and 0.948
  RPPA signal, antibody YTHDF2.R.V: 1.139 and 0.982 and 0.641
  RPPA signal, antibody YTHDF3.R.C: 0.920 and 0.753
  RPPA signal, antibody ZAP.70.R.V: 0.901 and 1.193
  RPPA signal, antibody ZEB1.R.V: 0.874 and 1.035
replicates
  C.Raf.R.C RPPA level: 0.877 and 1.136
  C.Raf_pS338.R.V RPPA level: 1.205
  CA9.R.C RPPA level: 0.982 and 0.948 and 1.015
  CD2.M.C RPPA level: 1.000 and 0.961 and 1.133
  CD4.R.V RPPA level: 0.886 and 1.117
  CD5.M.C RPPA level: 1.034 and 0.973
  CD20.R.C RPPA level: 1.057 and 0.829 and 0.477
  CD26.R.V RPPA level: 0.893 and 1.128 and 0.797
  CD29.M.V RPPA level: 0.991 and 0.954 and 1.138
  CD31.M.V RPPA level: 1.000 and 0.925 and 1.157
  CD38.R.C RPPA level: 0.963 and 1.191 and 1.116
  CD44.R.C RPPA level: 0.984 and 0.955 and 0.823
  CD45.M.V RPPA level: 1.027 and 0.978 and 1.076
  CD49b.M.V RPPA level: 1.059 and 0.901 and 0.919
  CD68.M.C RPPA level: 1.053 and 0.950 and 1.032
  CD74.M.V RPPA level: 0.953
  CD134.R.V RPPA level: 1.004 and 0.980 and 1.076
  CD171.M.V RPPA level: 0.646 and 0.896 and 0.990
  CDK1_pT14.R.C RPPA level: 0.964 and 1.128
  CDK9.R.V RPPA level: 1.046 and 0.940 and 0.953
  CDKN2A.R.C RPPA level: 1.033 and 0.974 and 1.120
  CDT1.R.V RPPA level: 1.009 and 1.034
  CENP.A.R.V RPPA level: 1.061 and 0.838 and 0.961
  CIITA.R.C RPPA level: 0.973 and 0.944 and 0.768
  COG3.R.V RPPA level: 1.020 and 1.162 and 1.108
  CRABP1.R.C RPPA level: 1.003 and 1.061
  CRABP2.R.V RPPA level: 1.206 and 0.955 and 0.945
  CREB_pS133.R.C RPPA level: 0.945 and 1.492 and 0.936
  CSK.R.C RPPA level: 1.015 and 1.119 and 0.620
  Calnexin.R.V RPPA level: 0.967 and 1.097
  Caspase.3.cleaved.R.C RPPA level: 0.926 and 1.159
  Caspase.7.cleaved..R.C RPPA level: 0.858 and 1.158
  Caspase.8.M.Q RPPA level: 1.096 and 0.944
  Caspase.8.cleaved.R.C RPPA level: 0.924 and 1.111 and 1.128
  Caveolin.1.R.V RPPA level: 0.498 and 0.935 and 1.046
  Cdc6.R.V RPPA level: 0.936
  Cdc42.R.C RPPA level: 0.966 and 1.031
  Chk1.M.C RPPA level: 1.078 and 0.961
  Chk1_pS296.R.V RPPA level: 0.982 and 1.154 and 1.114
  Chk1_pS345.R.C RPPA level: 1.000 and 1.084 and 0.861
  Chk2.M.V RPPA level: 1.157 and 0.671
  Chk2_pT68.R.C RPPA level: 0.939 and 1.327 and 1.189
  Claudin.7.R.V RPPA level: 1.057 and 0.909 and 0.755
  Collagen.VI.R.V RPPA level: 1.076 and 0.844 and 1.257
  Complex.II.Subunit.M.V RPPA level: 1.008 and 1.014 and 0.777
  Connexin.43.R.C RPPA level: 1.009 and 1.236
  Coup.TFII.R.C RPPA level: 0.833 and 1.226
  Cox2.R.C RPPA level: 1.024 and 0.895 and 1.250
  Cox.IV.R.V RPPA level: 0.999 and 1.060 and 1.025
  Creb.R.C RPPA level: 1.026 and 1.133 and 1.082
  CtIP.R.V RPPA level: 0.829 and 1.057 and 0.997
  Cyclin.B1.R.V RPPA level: 1.136 and 0.725 and 1.229
  Cyclin.D1.R.C RPPA level: 1.048 and 0.891 and 1.065
  Cyclin.D3.M.V RPPA level: 1.309 and 1.005 and 0.824
  Cyclin.E1.R.V RPPA level: 1.096 and 0.925 and 0.965
  Cyclophilin.F.M.V RPPA level: 0.978 and 1.019 and 0.727
  D.a.Tubulin.R.V RPPA level: 0.975 and 1.193
  DAPK1_pS308.M.C RPPA level: 1.267 and 0.870 and 0.330
  DAPK2.R.C RPPA level: 0.970 and 1.126 and 1.124
  DDB.1.R.V RPPA level: 0.890 and 0.958 and 1.524
  DDR1.R.V RPPA level: 1.024 and 0.829 and 1.002
  DDR1_pY513.R.C RPPA level: 1.024 and 0.961 and 1.078
